According to ChEMBL document CHEMBL1201862, “PubChem BioAssay data set” (2004):
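Growth conditions: 96-well plates. Treatment: test compound, 48 hours, 5 concentrations. Analysis: linear interpolation between bracketing concentrations; unreached endpoints set to highest concentration. Abbreviation: GI50, concentration required for 50% inhibition of growth.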 Calls of active or inactive are those of the source. Cut-off read from the data, not from the text of the source: active = GI50 up to about 1.1 µM and inactive = higher.

Assays:
Test in all cases: growth of human tumour cells (NCI), 48 h
[1] = tested on: 786-0
[2] = tested on: A498
[3] = tested on: A549
[4] = tested on: ACHN
[5] = tested on: BT-549
[6] = tested on: CAKI-1
[7] = tested on: CCRF-CEM
[8] = tested on: COLO 205
[9] = tested on: DU-145
[10] = tested on: EKVX
[11] = tested on: HCT-116
[12] = tested on: HCT-15
[13] = tested on: HL-60
[14] = tested on: HOP-62
[15] = tested on: HOP-92
[16] = tested on: HT-29
[17] = tested on: Hs-578T
[18] = tested on: IGROV-1
[19] = tested on: K562
[20] = tested on: KM12
[21] = tested on: LOX IMVI
[22] = tested on: M14
[23] = tested on: MCF7
[24] = tested on: MDA-MB-231
[25] = tested on: MDA-MB-435
[26] = tested on: MDA-N
[27] = tested on: MOLT-4
[28] = tested on: Malme-3M
[29] = tested on: NCI-H226
[30] = tested on: NCI-H23
[31] = tested on: NCI-H460
[32] = tested on: NCI-H522
[33] = tested on: NCI/ADR-RES
[34] = tested on: OVCAR-3
[35] = tested on: OVCAR-4
[36] = tested on: OVCAR-5
[37] = tested on: OVCAR-8
[38] = tested on: PC-3
[39] = tested on: RPMI-8226
[40] = tested on: RXF 393
[41] = tested on: SF-268
[42] = tested on: SF-295
[43] = tested on: SF-539
[44] = tested on: SK-MEL-28
[45] = tested on: SK-MEL-2
[46] = tested on: SK-MEL-5
[47] = tested on: SK-OV-3
[48] = tested on: SN12C
[49] = tested on: SNB-19
[50] = tested on: SNB-75
[51] = tested on: SR
[52] = tested on: SW-620
[53] = tested on: T47D
[54] = tested on: TK-10
[55] = tested on: U-251
[56] = tested on: UACC-257
[57] = tested on: UACC-62
[58] = tested on: UO-31
[59] = tested on: HCC 2998

O=C(O)c1ccc2c(c1C(=O)O)C(=O)OC2(c1ccc(O)cc1)c1ccc(O)cc1
GI50 [1]: > 100 µM (inactive)
GI50 [2]: > 100 µM (inactive)
GI50 [3]: > 100 µM (inactive)
GI50 [4]: > 100 µM (inactive)
GI50 [5]: > 100 µM (inactive)
GI50 [6]: > 100 µM (inactive)
GI50 [7]: > 100 µM (inactive)
GI50 [8]: > 100 µM (inactive)
GI50 [9]: > 100 µM (inactive)
GI50 [10]: > 100 µM (inactive)
GI50 [11]: > 100 µM (inactive)
GI50 [12]: > 100 µM
GI50 [13]: > 100 µM (inactive)
GI50 [14]: > 100 µM (inactive)
GI50 [15]: > 100 µM (inactive)
GI50 [16]: > 100 µM (inactive)
GI50 [17]: > 100 µM (inactive)
GI50 [18]: > 100 µM (inactive)
GI50 [19]: > 100 µM (inactive)
GI50 [20]: > 100 µM (inactive)
GI50 [21]: > 100 µM (inactive)
GI50 [22]: > 100 µM (inactive)
GI50 [23]: > 100 µM (inactive)
GI50 [24]: > 100 µM (inactive)
GI50 [25]: > 100 µM (inactive)
GI50 [26]: > 100 µM (inactive)
GI50 [27]: > 100 µM (inactive)
GI50 [28]: > 100 µM (inactive)
GI50 [29]: > 100 µM (inactive)
GI50 [30]: > 100 µM (inactive)
GI50 [31]: > 100 µM (inactive)
GI50 [32]: > 100 µM (inactive)
GI50 [33]: > 100 µM (inactive)
GI50 [34]: > 100 µM (inactive)
GI50 [35]: > 100 µM (inactive)
GI50 [36]: > 100 µM (inactive)
GI50 [37]: > 100 µM (inactive)
GI50 [38]: > 100 µM (inactive)
GI50 [39]: > 100 µM (inactive)
GI50 [40]: > 100 µM (inactive)
GI50 [41]: > 100 µM (inactive)
GI50 [42]: > 100 µM (inactive)
GI50 [43]: > 100 µM (inactive)
GI50 [44]: > 100 µM (inactive)
GI50 [45]: > 100 µM (inactive)
GI50 [46]: > 100 µM (inactive)
GI50 [47]: > 100 µM (inactive)
GI50 [48]: > 100 µM (inactive)
GI50 [49]: > 100 µM (inactive)
GI50 [50]: > 100 µM (inactive)
GI50 [51]: > 100 µM (inactive)
GI50 [52]: > 100 µM (inactive)
GI50 [53]: > 100 µM (inactive)
GI50 [54]: > 100 µM (inactive)
GI50 [55]: > 100 µM (inactive)
GI50 [56]: > 100 µM (inactive)
GI50 [57]: > 100 µM (inactive)
GI50 [58]: > 100 µM (inactive)

CSc1c(C(=O)Nc2ccccc2)c(N)n(N)c(=O)c1C#N
GI50 [1]: > 100 µM (inactive)
GI50 [2]: 30.5 µM (inactive)
GI50 [3]: > 100 µM (inactive)
GI50 [5]: > 100 µM (inactive)
GI50 [6]: > 100 µM (inactive)
GI50 [7]: > 100 µM (inactive)
GI50 [8]: > 100 µM (inactive)
GI50 [9]: > 100 µM (inactive)
GI50 [10]: > 100 µM (inactive)
GI50 [59]: > 100 µM (inactive)
GI50 [11]: > 100 µM (inactive)
GI50 [12]: > 100 µM
GI50 [13]: > 100 µM (inactive)
GI50 [16]: > 100 µM (inactive)
GI50 [17]: > 100 µM (inactive)
GI50 [18]: > 100 µM (inactive)
GI50 [19]: > 100 µM (inactive)
GI50 [20]: > 100 µM (inactive)
GI50 [21]: > 100 µM (inactive)
GI50 [22]: > 100 µM (inactive)
GI50 [23]: > 100 µM (inactive)
GI50 [24]: > 100 µM (inactive)
GI50 [25]: > 100 µM (inactive)
GI50 [26]: > 100 µM (inactive)
GI50 [27]: > 100 µM (inactive)
GI50 [28]: > 100 µM (inactive)
GI50 [29]: > 100 µM (inactive)
GI50 [30]: > 100 µM (inactive)
GI50 [31]: > 100 µM (inactive)
GI50 [32]: 64 µM (inactive)
GI50 [33]: > 100 µM (inactive)
GI50 [34]: > 100 µM (inactive)
GI50 [35]: > 100 µM (inactive)
GI50 [36]: > 100 µM (inactive)
GI50 [37]: > 100 µM (inactive)
GI50 [38]: > 100 µM (inactive)
GI50 [39]: > 100 µM (inactive)
GI50 [40]: > 100 µM (inactive)
GI50 [41]: > 100 µM (inactive)
GI50 [43]: > 100 µM (inactive)
GI50 [44]: > 100 µM (inactive)
GI50 [45]: > 100 µM (inactive)
GI50 [46]: > 100 µM (inactive)
GI50 [47]: > 100 µM (inactive)
GI50 [48]: > 100 µM (inactive)
GI50 [49]: > 100 µM (inactive)
GI50 [50]: > 100 µM (inactive)
GI50 [51]: > 100 µM (inactive)
GI50 [52]: > 100 µM (inactive)
GI50 [53]: > 100 µM (inactive)
GI50 [54]: > 100 µM (inactive)
GI50 [55]: > 100 µM (inactive)
GI50 [56]: > 100 µM (inactive)
GI50 [57]: > 100 µM (inactive)
GI50 [58]: > 100 µM (inactive)

NCC(O)CNCC/C=C\C/C=C\C/C=C\C/C=C\C/C=C\C/C=C\CCCCC/C=C\CCNCC(O)CN (configuration not stated)
GI50 [1]: 1.69 µM (inactive)
GI50 [2]: 1.83 µM (inactive)
GI50 [3]: 1.85 µM (inactive)
GI50 [4]: 1.8 µM (inactive)
GI50 [5]: 2.94 µM (inactive)
GI50 [6]: 2.08 µM (inactive)
GI50 [8]: 1.96 µM (inactive)
GI50 [9]: 1.77 µM (inactive)
GI50 [10]: 0.731 µM (active)
GI50 [11]: 1.78 µM (inactive)
GI50 [12]: 1.6 µM
GI50 [13]: 0.453 µM (active)
GI50 [14]: 1.97 µM (inactive)
GI50 [15]: 2.01 µM (inactive)
GI50 [16]: 1.75 µM (inactive)
GI50 [17]: 1.36 µM (inactive)
GI50 [18]: 1.71 µM (inactive)
GI50 [19]: 2.29 µM (inactive)
GI50 [20]: 1.58 µM (inactive)
GI50 [21]: 1.79 µM (inactive)
GI50 [22]: 1.94 µM (inactive)
GI50 [23]: 2.15 µM (inactive)
GI50 [24]: 1.75 µM (inactive)
GI50 [25]: 1.65 µM (inactive)
GI50 [26]: 1.67 µM (inactive)
GI50 [27]: 1.24 µM (inactive)
GI50 [28]: 1.94 µM (inactive)
GI50 [29]: 2.64 µM (inactive)
GI50 [31]: 1.82 µM (inactive)
GI50 [32]: 1.53 µM (inactive)
GI50 [33]: 1.47 µM (inactive)
GI50 [34]: 1.98 µM (inactive)
GI50 [35]: 1.93 µM (inactive)
GI50 [36]: 1.94 µM (inactive)
GI50 [37]: 1.78 µM (inactive)
GI50 [38]: 1.92 µM (inactive)
GI50 [39]: 1.66 µM (inactive)
GI50 [41]: 1.83 µM (inactive)
GI50 [42]: 2.07 µM (inactive)
GI50 [43]: 1.9 µM (inactive)
GI50 [44]: 3.4 µM (inactive)
GI50 [45]: 1.81 µM (inactive)
GI50 [47]: 2.64 µM (inactive)
GI50 [48]: 1.64 µM (inactive)
GI50 [49]: 1.9 µM (inactive)
GI50 [50]: 1.73 µM (inactive)
GI50 [51]: 0.435 µM (active)
GI50 [52]: 1.78 µM (inactive)
GI50 [53]: 2 µM (inactive)
GI50 [54]: 1.57 µM (inactive)
GI50 [55]: 1.72 µM (inactive)
GI50 [56]: 2.13 µM (inactive)
GI50 [57]: 1.79 µM (inactive)
GI50 [58]: 1.9 µM (inactive)
